Data as given in ChEMBL document CHEMBL5465560, “Selectivity Literature for EUbOPEN Chemogenomic Library” (2024).
One block for each compound: values may come before it.

How the values were obtained:
[1] = biological target: T1, Cytoplasmic tyrosine-protein kinase BMX (Homo sapiens) (UniProt P51813); test: Selectivity interaction (KinaseProfiler screening (Millipore)) EUB0000601a BMX; conditions: at 3 µM
T1 sequence (whole entry): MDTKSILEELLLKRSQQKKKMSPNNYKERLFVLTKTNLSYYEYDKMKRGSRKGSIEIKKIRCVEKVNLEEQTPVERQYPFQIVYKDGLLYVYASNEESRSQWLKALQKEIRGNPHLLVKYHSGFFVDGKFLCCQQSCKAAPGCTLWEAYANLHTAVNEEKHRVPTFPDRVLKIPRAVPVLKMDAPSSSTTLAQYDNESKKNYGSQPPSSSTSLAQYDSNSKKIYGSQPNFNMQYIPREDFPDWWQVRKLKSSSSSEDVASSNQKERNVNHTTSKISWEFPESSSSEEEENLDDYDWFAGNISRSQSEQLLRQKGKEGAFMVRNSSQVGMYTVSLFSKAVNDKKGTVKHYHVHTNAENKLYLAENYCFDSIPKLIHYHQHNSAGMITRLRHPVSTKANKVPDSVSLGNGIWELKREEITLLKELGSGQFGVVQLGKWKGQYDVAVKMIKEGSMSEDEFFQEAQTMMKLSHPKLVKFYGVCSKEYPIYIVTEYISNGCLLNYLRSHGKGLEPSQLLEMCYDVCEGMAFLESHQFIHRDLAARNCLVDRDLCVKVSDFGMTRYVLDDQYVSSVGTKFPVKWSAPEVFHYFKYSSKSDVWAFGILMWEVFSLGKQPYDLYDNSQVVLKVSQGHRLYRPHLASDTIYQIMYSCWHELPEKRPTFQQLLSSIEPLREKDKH

[2] = biological target: ATP-sensitive inward rectifier potassium channel 11 (Homo sapiens) (UniProt Q14654); test: Selectivity interaction (Eurofins CEREP Diversity Profile (receptors and ion channels)) EUB0000279b KCNJ11; conditions: at 10 µM
ATP-sensitive inward rectifier potassium channel 11 (Homo sapiens), sequence (Q14654 whole entry): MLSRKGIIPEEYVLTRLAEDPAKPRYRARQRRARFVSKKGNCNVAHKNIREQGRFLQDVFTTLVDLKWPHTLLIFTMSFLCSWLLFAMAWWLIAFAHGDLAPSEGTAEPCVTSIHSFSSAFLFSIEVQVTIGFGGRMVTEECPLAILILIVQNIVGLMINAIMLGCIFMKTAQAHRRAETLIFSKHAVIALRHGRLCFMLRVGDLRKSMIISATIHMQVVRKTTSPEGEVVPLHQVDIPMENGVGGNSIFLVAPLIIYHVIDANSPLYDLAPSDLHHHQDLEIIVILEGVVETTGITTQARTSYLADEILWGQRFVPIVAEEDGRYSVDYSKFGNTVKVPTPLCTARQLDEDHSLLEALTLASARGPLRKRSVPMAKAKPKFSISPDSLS

[3] = biological target: Serine/threonine-protein kinase 33 (Homo sapiens) (UniProt Q9BYT3); test: Selectivity interaction (KinomeScan (DiscoverX)) EUB0000607a STK33; conditions: at 10 µM
[4] = biological target: Rho-associated protein kinase 2 (Homo sapiens, UniProt O75116); test: Selectivity interaction (KinomeScan (DiscoverX)) EUB0000607a ROCK2; conditions: at 10 µM
Rho-associated protein kinase 2, sequence (O75116 whole entry, looked up): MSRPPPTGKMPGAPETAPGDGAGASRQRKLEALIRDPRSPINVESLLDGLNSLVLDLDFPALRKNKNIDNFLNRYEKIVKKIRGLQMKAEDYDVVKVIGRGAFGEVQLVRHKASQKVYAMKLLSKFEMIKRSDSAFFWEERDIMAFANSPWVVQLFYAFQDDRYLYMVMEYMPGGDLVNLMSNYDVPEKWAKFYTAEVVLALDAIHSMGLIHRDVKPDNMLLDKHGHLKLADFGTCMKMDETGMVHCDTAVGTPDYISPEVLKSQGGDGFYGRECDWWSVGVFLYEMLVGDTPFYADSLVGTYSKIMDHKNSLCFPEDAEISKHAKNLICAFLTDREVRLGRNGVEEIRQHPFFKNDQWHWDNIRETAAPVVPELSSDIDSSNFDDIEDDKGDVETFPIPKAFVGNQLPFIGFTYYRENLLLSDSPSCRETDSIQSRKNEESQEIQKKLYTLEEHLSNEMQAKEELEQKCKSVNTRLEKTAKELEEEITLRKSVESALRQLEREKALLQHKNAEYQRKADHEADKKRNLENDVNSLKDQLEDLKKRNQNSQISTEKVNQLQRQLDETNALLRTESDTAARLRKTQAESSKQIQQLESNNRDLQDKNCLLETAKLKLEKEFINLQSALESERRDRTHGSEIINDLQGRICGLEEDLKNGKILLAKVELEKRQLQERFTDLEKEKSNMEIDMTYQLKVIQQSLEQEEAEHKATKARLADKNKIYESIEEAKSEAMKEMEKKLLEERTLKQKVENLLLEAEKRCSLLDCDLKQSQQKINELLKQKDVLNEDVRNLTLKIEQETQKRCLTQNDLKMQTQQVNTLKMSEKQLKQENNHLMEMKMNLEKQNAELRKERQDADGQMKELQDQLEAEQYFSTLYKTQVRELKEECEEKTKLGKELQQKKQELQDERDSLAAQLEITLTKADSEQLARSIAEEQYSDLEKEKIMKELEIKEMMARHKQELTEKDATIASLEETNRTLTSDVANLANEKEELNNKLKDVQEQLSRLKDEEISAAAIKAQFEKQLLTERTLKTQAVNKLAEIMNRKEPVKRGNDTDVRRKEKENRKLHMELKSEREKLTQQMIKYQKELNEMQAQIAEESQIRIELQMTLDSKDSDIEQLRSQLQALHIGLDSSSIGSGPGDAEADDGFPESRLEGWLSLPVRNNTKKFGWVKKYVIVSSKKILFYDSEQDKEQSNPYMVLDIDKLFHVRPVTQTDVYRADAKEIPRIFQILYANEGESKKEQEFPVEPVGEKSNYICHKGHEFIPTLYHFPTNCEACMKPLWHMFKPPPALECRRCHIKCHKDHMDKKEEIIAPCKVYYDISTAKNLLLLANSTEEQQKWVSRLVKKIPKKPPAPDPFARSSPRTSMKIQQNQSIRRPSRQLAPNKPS

[5] = biological target: Ribosomal protein S6 kinase alpha-3 (Homo sapiens, UniProt P51812); test: Selectivity interaction (KinomeScan (DiscoverX)) EUB0001619a RPS6KA3; conditions: at 1 µM
Ribosomal protein S6 kinase alpha-3, sequence (P51812 whole entry): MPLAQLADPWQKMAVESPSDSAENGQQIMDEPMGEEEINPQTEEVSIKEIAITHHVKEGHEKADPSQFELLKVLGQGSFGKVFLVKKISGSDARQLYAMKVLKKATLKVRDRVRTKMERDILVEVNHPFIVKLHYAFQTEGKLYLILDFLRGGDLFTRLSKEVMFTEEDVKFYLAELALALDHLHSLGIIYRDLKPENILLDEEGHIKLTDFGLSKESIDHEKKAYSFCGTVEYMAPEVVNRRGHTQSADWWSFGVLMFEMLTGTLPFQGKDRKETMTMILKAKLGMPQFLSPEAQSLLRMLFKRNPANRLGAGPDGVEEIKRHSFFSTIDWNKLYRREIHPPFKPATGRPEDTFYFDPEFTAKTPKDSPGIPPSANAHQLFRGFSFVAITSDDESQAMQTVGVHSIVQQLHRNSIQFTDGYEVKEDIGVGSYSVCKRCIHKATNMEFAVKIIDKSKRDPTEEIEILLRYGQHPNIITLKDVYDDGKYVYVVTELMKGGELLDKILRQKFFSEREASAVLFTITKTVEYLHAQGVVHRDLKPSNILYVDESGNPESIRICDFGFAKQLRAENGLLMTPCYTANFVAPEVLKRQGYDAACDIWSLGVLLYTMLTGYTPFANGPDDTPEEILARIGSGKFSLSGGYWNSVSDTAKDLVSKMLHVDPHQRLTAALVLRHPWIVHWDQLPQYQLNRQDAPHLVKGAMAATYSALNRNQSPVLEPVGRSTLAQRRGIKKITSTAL

[6] = biological target: Mitogen-activated protein kinase kinase kinase 20 (Homo sapiens) (UniProt Q9NYL2); test: Selectivity interaction (Kinase panel (KiNativ target engagement assay in Jurkat cells)) EUB0001635a MAP3K20; type: cell-based; conditions: Selectivity number of off-targets 0.0, Selectivity number of targets 233.0, Source Knowledge https://www.sciencedirect.com/science/article/pii/S2451945619300674?via%3Dihub, at 1 µM
Mitogen-activated protein kinase kinase kinase 20 (Homo sapiens), sequence (Q9NYL2 2-800 limits assumed): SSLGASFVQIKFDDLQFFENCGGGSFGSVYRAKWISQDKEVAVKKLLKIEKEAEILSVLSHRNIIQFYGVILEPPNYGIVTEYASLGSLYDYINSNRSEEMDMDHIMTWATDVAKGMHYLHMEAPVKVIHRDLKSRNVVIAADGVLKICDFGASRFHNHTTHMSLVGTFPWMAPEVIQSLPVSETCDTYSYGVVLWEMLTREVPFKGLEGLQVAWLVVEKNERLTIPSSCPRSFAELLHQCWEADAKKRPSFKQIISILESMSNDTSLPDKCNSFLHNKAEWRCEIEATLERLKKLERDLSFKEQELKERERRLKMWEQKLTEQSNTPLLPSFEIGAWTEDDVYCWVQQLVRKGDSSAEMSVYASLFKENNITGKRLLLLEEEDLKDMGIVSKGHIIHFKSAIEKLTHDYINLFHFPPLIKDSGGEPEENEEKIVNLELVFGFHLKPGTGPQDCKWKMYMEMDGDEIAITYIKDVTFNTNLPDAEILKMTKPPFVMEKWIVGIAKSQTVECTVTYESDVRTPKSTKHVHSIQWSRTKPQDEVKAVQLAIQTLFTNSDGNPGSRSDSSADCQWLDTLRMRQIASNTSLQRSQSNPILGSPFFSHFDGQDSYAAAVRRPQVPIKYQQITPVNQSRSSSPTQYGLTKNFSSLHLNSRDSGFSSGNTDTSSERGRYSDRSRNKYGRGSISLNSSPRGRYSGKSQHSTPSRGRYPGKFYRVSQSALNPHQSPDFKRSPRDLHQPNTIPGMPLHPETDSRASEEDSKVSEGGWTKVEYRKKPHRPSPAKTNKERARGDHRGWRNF

[7] = biological target: T2, Dual specificity mitogen-activated protein kinase kinase 6 (Homo sapiens) (UniProt P52564); test: Selectivity interaction (ActivX KiNativ screen (kinase selectivity in THP-1 cell lysates)) EUB0000639a MAP2K6; type: subcellular; conditions: lysate, at 5 µM
T2 sequence (whole entry): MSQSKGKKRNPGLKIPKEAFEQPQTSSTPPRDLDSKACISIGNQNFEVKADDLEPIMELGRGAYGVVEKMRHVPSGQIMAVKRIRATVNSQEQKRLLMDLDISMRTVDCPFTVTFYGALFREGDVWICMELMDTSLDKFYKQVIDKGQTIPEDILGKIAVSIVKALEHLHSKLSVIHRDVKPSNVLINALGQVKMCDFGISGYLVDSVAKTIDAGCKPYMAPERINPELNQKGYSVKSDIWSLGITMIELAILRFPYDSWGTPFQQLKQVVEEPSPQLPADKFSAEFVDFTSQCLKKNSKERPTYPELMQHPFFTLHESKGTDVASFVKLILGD

[8] = biological target: T3, Dual specificity mitogen-activated protein kinase kinase 4 (Homo sapiens) (UniProt P45985); test: Selectivity interaction (ProQinase) EUB0000171b MAP2K4
T3 sequence (whole entry): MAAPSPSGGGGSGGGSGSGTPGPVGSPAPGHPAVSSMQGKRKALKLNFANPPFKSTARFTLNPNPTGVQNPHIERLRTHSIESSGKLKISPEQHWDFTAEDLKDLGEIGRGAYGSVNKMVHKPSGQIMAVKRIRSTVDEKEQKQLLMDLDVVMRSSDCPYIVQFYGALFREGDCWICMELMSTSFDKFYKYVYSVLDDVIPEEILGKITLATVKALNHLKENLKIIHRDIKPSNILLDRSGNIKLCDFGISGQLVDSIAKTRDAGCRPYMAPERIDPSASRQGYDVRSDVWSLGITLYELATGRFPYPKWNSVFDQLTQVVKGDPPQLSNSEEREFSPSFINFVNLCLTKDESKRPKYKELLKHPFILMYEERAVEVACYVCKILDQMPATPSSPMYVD

[9] = biological target: T4, Inhibitor of nuclear factor kappa-B kinase subunit beta (Homo sapiens) (UniProt O14920); test: Selectivity interaction (ProQinase) EUB0000171b IKBKB
T4 sequence (whole entry): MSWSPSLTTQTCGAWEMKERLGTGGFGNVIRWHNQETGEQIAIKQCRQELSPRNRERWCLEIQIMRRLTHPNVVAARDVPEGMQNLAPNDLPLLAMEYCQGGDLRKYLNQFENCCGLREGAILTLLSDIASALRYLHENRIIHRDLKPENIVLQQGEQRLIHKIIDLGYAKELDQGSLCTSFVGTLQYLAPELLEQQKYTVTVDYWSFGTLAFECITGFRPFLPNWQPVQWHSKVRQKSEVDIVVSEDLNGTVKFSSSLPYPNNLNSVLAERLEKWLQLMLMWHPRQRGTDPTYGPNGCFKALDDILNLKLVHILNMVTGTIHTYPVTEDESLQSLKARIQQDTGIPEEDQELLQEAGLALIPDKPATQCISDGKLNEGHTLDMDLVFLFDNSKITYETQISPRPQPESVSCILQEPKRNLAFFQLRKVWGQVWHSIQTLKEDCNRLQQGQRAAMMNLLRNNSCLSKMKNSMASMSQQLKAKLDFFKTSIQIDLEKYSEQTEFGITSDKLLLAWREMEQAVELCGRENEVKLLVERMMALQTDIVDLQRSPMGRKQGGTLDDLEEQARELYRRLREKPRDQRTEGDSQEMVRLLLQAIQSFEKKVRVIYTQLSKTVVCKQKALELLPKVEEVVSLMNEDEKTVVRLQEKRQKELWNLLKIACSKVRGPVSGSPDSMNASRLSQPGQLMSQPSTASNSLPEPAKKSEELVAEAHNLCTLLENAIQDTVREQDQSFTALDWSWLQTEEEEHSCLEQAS

[10] = biological target: Non-receptor tyrosine-protein kinase TYK2 (Homo sapiens, UniProt P29597); test: Selectivity interaction (Kinase panel (33PanQinase(R) Activity Assay)) EUB0000877a TYK2
Non-receptor tyrosine-protein kinase TYK2, sequence (P29597 whole entry): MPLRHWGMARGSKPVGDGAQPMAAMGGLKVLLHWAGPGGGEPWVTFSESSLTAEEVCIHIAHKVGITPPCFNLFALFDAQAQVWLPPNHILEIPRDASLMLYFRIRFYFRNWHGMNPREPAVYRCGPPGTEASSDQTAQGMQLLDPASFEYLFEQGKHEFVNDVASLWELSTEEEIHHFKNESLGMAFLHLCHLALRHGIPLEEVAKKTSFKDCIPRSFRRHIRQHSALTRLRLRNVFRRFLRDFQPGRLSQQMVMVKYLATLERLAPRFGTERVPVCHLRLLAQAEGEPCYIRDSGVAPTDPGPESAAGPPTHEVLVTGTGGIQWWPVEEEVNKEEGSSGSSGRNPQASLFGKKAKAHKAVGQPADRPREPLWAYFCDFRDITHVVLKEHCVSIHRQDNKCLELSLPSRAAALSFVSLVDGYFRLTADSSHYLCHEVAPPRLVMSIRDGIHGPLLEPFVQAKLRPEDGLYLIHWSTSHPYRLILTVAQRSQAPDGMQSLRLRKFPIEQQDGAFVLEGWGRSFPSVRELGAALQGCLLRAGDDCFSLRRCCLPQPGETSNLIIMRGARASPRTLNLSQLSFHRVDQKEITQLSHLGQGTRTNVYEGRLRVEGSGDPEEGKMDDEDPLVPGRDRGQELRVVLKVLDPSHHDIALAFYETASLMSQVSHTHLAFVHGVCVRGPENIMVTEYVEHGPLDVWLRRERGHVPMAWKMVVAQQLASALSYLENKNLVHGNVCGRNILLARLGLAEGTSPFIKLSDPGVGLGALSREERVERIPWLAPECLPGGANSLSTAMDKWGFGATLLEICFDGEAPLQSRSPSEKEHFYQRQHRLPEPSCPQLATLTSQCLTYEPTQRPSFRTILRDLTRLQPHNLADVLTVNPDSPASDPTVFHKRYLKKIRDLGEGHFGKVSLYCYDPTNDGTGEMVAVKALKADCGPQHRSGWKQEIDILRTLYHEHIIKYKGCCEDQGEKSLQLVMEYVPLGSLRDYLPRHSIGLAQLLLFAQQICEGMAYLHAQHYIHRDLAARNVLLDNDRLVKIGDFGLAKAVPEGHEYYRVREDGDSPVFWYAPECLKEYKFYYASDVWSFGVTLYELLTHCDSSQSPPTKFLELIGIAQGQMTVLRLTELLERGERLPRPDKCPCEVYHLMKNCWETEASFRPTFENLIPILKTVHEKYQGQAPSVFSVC

[11] = biological target: Alpha-2A adrenergic receptor (Homo sapiens, UniProt P08913); test: Selectivity interaction (Alpha2A calcium flux assay ) EUB0000877a ADRA2A
Alpha-2A adrenergic receptor, sequence (P08913 whole entry): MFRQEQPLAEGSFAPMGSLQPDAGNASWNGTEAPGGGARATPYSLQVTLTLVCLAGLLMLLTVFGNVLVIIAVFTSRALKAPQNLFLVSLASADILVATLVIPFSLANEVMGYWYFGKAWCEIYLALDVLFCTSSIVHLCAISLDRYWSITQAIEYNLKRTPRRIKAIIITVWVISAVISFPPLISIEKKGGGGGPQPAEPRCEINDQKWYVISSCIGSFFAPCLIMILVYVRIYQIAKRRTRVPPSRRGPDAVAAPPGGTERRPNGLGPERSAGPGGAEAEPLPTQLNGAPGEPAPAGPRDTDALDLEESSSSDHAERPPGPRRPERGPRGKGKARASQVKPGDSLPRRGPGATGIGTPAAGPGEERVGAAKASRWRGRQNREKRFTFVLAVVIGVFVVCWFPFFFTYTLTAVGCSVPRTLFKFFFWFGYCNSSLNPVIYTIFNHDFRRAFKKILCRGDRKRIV

% of inhibition [1]: 71%
SMILES: CCc1cc(Nc2nccc(-c3c(-c4ccc(OC)c(C(=O)Nc5c(F)cccc5F)c4)nc4ccccn34)n2)c(OC)cc1N1CCC(N2CCN(S(C)(=O)=O)CC2)CC1

% of control [2]: 105%
SMILES: CC(=O)c1cc(-c2ccccc2OCC2CC2)c2ncccn12

SMILES: CNC(=O)Nc1ccc(-c2nc(N3CC4CCC(C3)O4)c3cnn(C4CCC5(CC4)OCCO5)c3n2)cc1
% of control [3]: 82% | % of control [4]: 100%

SMILES: N#Cc1cccc(-c2c[nH]c3ncnc(N4CCOCC4)c23)c1
% of control [5]: 46%

SMILES: C=CC(=O)Nc1ccc(C(=O)Nc2[nH]nc3c2CN(C(=O)N[C@H](CN(C)C)c2ccccc2)C3(C)C)cc1
% of engagement [6]: -9.7%

% of inhibition [7]: 55.8%
SMILES: CC[C@@H]1[C@H](F)C(=O)N[C@@H]1COc1nccc2cc(C(N)=O)c(OC)cc12 [ZIMLOVISERTIB]

% of control ([8]; at 1 µM): 71% | % of control ([8]; at 5 µM): 90% | % of control ([9]; at 1 µM): 77% | % of control ([9]; at 5 µM): 63%
SMILES: C=CC(=O)Nc1cccc(C(=O)Nc2ccc(Nc3cc(-c4[nH]c(SC)nc4C)ccn3)cc2)c1

IC50 [10]: > 10 µM | IC50 [11]: > 30 µM
SMILES: CCC(=O)N1CC[C@H](Nc2ncnc3c2CN(c2cnc(OC)c(C(F)(F)F)c2)CC3)C1 [LENIOLISIB]
